The experiment deals with T1, human P2X4 receptors (Homo sapiens, UniProt Q99571).
T1 construct: expressed in transfected cells
T1 sequence (Q99571 1-388): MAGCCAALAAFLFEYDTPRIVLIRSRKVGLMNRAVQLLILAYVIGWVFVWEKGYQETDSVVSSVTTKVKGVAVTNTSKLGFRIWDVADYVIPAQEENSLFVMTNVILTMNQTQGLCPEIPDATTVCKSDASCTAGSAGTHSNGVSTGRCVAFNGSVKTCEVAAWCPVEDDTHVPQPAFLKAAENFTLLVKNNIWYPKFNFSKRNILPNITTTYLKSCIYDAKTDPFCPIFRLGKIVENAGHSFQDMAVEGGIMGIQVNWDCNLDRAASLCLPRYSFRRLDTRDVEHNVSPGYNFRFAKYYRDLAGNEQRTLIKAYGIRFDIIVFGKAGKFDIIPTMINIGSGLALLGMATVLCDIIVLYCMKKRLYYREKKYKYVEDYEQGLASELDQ
The experiment can be described thus: calcium influx assay (Fura-2, ATP-induced Ca2+ response) for P2X4 receptor antagonism. The conditions noted are these: 1321N1 cells stably expressing human P2X4 receptors; 1 μM ATP; compound treated 15 min before ATP; fluorescence ratio F340/F380. In kind it is cell-based. As for the experimental part: (§1) 1321N1 cells stably expressing human P2X4 receptors were adopted for calcium influx assay. P2X4/1321N1 cells were plated in 96-well assay plate and cultured 24 hours in an atmosphere of 5% CO2 at 37° C. Fura-2 AM calcium indicator dissolved in an extracellular solution for calcium imaging was loaded onto cells for 45 minutes at room temperature. […] The cells were alternatively illuminated with two excitations wavelengths (340 nm and 380 nm) via xenon lamp and the emitted fluorescence was measured at 510 nm. The fluorescence changes after the treatment of 1 μM ATP were monitored and determined the fluorescence ratio (F340/F380) as the index of intracellular calcium change. Tested compounds were treated to cells 15 min before the addition of ATP and the inhibition activities of compounds were calculated by comparing the Ca^2+ response with control in the absence of tested compound.
P2X4 receptor antagonism of the compound of the present invention was measured as described below.
as §1, with “change.” for “change. Tested compounds were treated to cells 15 min before the addition of ATP and the inhibition activities of compounds were calculated by comparing the Ca^2+ response with control in the absence of tested compound.”

We go through three molecules from patent publication US8470814B2, “Diazepinedione derivative” (Nippon Chemiphar Co., Ltd., priority 2009, dated 2013).

Structures can show the parent of a compound that is named as a salt.

As to `O=C1CC(=O)N(c2ccc(-c3nnn[nH]3)cc2)c2ccc3ccccc3c2N1` [Example 4, 5-[4-(1H-Tetrazol-5-yl)phenyl]-1H-naphtho[1,2-b][1,4]diazepin-2,4(3H,5H)-dione sodium salt], the IC50 is 0.75 µM.

Turning to `O=C1CC(=O)N(c2cccc(-c3ncco3)c2)c2ccc3ccccc3c2N1` [Example 15, 5-[3-(Oxazol-2-yl)phenyl]-1H-naphtho[1,2-b][1,4]diazepin-2,4(3H,5H)-dione], the IC50 amounted to 4.2 µM.

Turning to `O=C1CC(=O)N(c2cccc(-c3cn[nH]c3)c2)c2ccc3ccccc3c2N1` [Example 16, 5-[3-(1H-Pyrazol-4-yl)phenyl]-1H-naphtho[1,2-b][1,4]diazepin-2,4(3H,5H)-dione], the IC50 amounted to 3.6 µM.

The term IC50 denotes the concentration that gives 50% inhibition.
